The experiment has as its target Bovine Serum Albumin (Bos taurus, UniProt P02769). The experiment in a line: Bovine Serum Albumin Assay (BSA), inhibition of heat-induced protein denaturation (in vitro anti-inflammatory activity). It is filed as biochemical. How it is done: Bovine Serum Albumin Assay (BSA) In vitro-inflammatory activities of the tested samples were determined using a modified method of the BSA assay reported by Williams et al. BSA solution (0.4%, w/v) was prepared in Tris Buffered Saline. The pH was adjusted to 6.4 with glacial acetic acid. Different dilutions of 20, 40, 60, 80, and 100 μg/mL of 1-cyclopropyl-6-fluoro-4-oxo-7-(4-((5-oxo-2-phenyl-4-(quinolin-2-ylmethylene)-4,5-dihydro-1H-imidazol-1-yl)methyl)piperazin-1-yl)-1,4-dihydroquinoline-3-carboxylic acid in the stock solutions were added to test tubes containing 1 mL of 0.4%, w/v BSA buffer solution. Both negative (solvent) and positive (aspirin) controls were assayed in a similar manner. The solutions were then heated in a water bath at 72° C. for 10 minutes and cooled for 20 minutes under laboratory conditions. The turbidity of the solutions (level of protein precipitation) was measured at 660 nm in Spectrophotometer (V-770 UV-Visible/NIR Spectrophotometer). The percentage inhibition of precipitation (protein denaturation) was determined relative to the negative control using the following equation: [formula] [formula]

Where [1] appears, read: read-out: percentage inhibition of precipitation (protein denaturation).

Structures are written as SMILES. Like-named read-outs stand apart in the source and are kept apart here.

Chain of Bovine Serum Albumin (P02769 25-607): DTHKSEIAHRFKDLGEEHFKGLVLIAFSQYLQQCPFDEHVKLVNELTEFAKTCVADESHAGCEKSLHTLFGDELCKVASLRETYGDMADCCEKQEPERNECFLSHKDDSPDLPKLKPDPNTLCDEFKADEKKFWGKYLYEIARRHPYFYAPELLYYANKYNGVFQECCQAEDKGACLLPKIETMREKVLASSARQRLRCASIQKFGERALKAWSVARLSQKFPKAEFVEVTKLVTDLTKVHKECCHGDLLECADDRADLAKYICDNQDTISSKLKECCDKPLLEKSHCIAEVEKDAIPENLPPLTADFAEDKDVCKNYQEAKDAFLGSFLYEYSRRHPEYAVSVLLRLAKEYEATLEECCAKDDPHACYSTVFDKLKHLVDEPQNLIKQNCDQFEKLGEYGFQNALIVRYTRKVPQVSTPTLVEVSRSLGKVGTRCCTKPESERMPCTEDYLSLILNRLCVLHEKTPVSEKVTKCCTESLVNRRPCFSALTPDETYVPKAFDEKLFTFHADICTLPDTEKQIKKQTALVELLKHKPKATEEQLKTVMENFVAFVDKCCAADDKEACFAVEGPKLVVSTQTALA

Regarding `O=C(O)c1cn(C2CC2)c2cc(N3CCN(Cn4nc(/N=C/c5ccc(Cl)cc5Cl)sc4=S)CC3)c(F)cc2c1=O` [Present compound, 1-cyclopropyl-7-(4-((5-(2,4-dichlorobenzylideneamino)-2-thioxo-1,3,4-thiadiazol-3(2H)-yl)methyl)piperazin-1-yl)-6-fluoro-4-oxo-1,4-dihydroquinoline-3-carboxylic acid], the “in vitro anti-inflammatory effect” value (BSA assay, result in words) is given as “considerable anti-inflammatory effect”. Moreover, under setting [1], the inhibition at 20 µg/mL was 68.2%, the inhibition at 40 µg/mL turned out to be 75.7%, the inhibition at 60 µg/mL is 79.1% and the inhibition at 80 µg/mL was 83.8%. For the same compound, under setting [1], the inhibition at 100 µg/mL turned out to be 87.6%.
Regarding `CC(=O)Oc1ccccc1C(=O)O` [P.C, aspirin, reference compound], the inhibition at 100 µg/mL (concentration 100 μg/ml, 72° C. 10 minutes, turbidity at 660 nm, read-out: percentage inhibition of precipitation (protein denaturation)) came to 90.7%.

Values taken from patent US11905282B1, “1-cyclopropyl-7-(4-((5-(2,4-dichlorobenzylideneamino)-2-thioxo-1,3,4-thiadiazol-3(2H)-yl)methyl)piperazin-1-yl)-6-fluoro-4-oxo-1,4-dihydroquinoline-3-carboxylic acid as an anti-inflammatory compound” (KING FAISAL UNIVERSITY, priority 2023, dated 2024).
